Counter-ions that a name gives are not always drawn.
Tested on: HCT-116 cells
Experiment: Test for inhibiting sphere-forming ability of cancer cells (Test Example 1)
Format: cell-based, human
Conditions: Homo sapiens, 96 h, non-adherent serum-free sphere culture, 4 days, CellTiter-Glo, read-out: IC50 (μmol/L), Sphere IC50 value, concentration for 50% inhibition of cell proliferation
Description: The reliable methods established for measuring the self-renewal ability of cells which is one of the CSC's properties include a method for measuring the sphere-forming ability of cancer cells in non-adherent condition in the absence of serum (Cancer Res 65, 5506-5511 (2005)). HCT-116 cells were available from the American Type Culture Collection (ATCC). HCT-116 cells were cultured at 37° C. and 5% CO2 using the McCoy's 5a medium containing 10% fetal bovine serum (FBS), 100 U/ml penicillin, and 100 μg/ml streptomycin. HCT-116 cells were seeded in a 384 Well Black Clear Bottom Ultra-Low Attachment Microplate (Corning Cat. No. 3827) in an amount of 350-800 cells/well using the DMEM/F12 medium containing 2% B27 supplement (GIBCO), 20 ng/mL epidermal growth factor (EGF) (peprotech), 10 ng/mL basic fibroblast growth factor (bFGF) (peprotech), 5 μg/mL insulin (Sigma), and 1% penicillin/streptomycin. The test compounds were added into each well to adjust the final concentration of DMSO to 0.1%, and the cells were cultured for 4 days. The number of viable cells in each well was then measured with CellTiter-Glo® Luminescent Cell Viability Assay (Promega) to calculate the concentration of each test compound for 50% inhibition of cell proliferation (Sphere IC50 value; μmol/L).
The experiment of Test Example 1 was performed for the compounds of each Example.

Compound | IC50 [µmol/L]
O=C(Nc1cn(Cc2cccc(C(F)(F)F)c2)cn1)c1cc(CO)on1 [Example 27] | 0.653
O=C(Nc1ccc2nc(CO)ccc2c1)c1cn(Cc2cc(F)c(F)c(F)c2)cn1 [Example 29] | 0.079
Nc1cc(C(=O)Nc2cn(Cc3cc(F)c(F)c(F)c3)cn2)cnc1CO [Example 59, 5-amino-6-(hydroxymethyl)-N-[1-(3,4,5-trifluorobenzyl)-1H-imidazol-4-yl]nicotinamide] | 0.01
O=C(Nc1cn(Cc2cccc(Cl)c2)cn1)c1ccc(CO)nc1 [Example 21] | 0.056
O=C(Nc1cn(Cc2cccc(C(F)(F)F)c2)cn1)c1ccc(CO)cn1 [Example 15, 5-(Hydroxymethyl)-N-{1-[3-(trifluoromethyl)benzyl]-1H-imidazol-4-yl}picolinamide] | 0.03
O=C(Nc1cn(Cc2cccc(C(F)(F)F)c2)cn1)c1cnc(CO)cn1 [Example 26] | 0.053
O=C(Nc1ccc(CO)nc1)c1cn(Cc2cc(F)c(F)c(F)c2)cn1 [Example 28, N-[6-(Hydroxymethyl)pyridin-3-yl]-1-(3,4,5-trifluorobenzyl)-1H-imidazole-4-carboxamide] | < 0.01
O=C(Nc1cn(Cc2cccc(C(F)(F)F)c2)cn1)c1cnc(CO)c(C(F)(F)F)c1 [Example 25] | 0.07
O=C(Nc1cn(Cc2cc(F)c(F)c(F)c2)cn1)c1ccc(CO)nc1 [Example 20, 6-(Hydroxymethyl)-N-[1-(3,4,5-trifluorobenzyl)-1H-imidazol-4-yl]nicotinamide] | 0.007
O=C(Nc1cn(Cc2cccc(C(F)(F)F)c2)cn1)c1ccc(CO)nc1 [Example 22, 6-(hydroxymethyl)-N-{1-[3-(trifluoromethyl)benzyl]-1H-imidazol-4-yl}nicotinamide] | < 0.01
Cc1cc(C(=O)Nc2cn(Cc3cc(F)c(F)c(F)c3)cn2)cnc1CO [Example 55, 6-(Hydroxymethyl)-5-methyl-N-[1-(3,4,5-trifluorobenzyl)-1H-imidazol-4-yl]nicotinamide] | < 0.01
O=C(Nc1cn(Cc2cc(F)c(F)c(F)c2)cn1)c1csc(CO)n1 [Example 19] | 0.077
O=C(Nc1ccc2c(c1)CCCN2)c1cn(Cc2cc(F)c(F)c(F)c2)cn1 [Example 33, N-(1,2,3,4-Tetrahydroquinolin-6-yl)-1-(3,4,5-trifluorobenzyl)-1H-imidazole-4-carboxamide dihydrochloride] | 0.66
O=C(Nc1cn(Cc2cccc(C(F)(F)F)c2)cn1)c1cnc(CO)c(C(F)F)c1 [Example 23, 5-(difluoromethyl)-6-(hydroxymethyl)-N-{1-[3-(trifluoromethyl)benzyl]-1H-imidazol-4-yl}nicotinamide] | < 0.01
Nc1cc(C(=O)Nc2cn(Cc3cccc(C(F)(F)F)c3)cn2)cnc1CO [Example 58, 5-Amino-6-(hydroxymethyl)-N-{1-[3-(trifluoromethyl)benzyl]-1H-imidazol-4-yl}nicotinamide] | 0.029
O=C(Nc1cn(Cc2cccc(C(F)(F)F)c2)cn1)c1csc(CO)n1 [Example 18] | 0.024

Same assay, conditions: non-adherent serum-free sphere culture, 4 days, CellTiter-Glo, read-out: IC50 (μmol/L), Sphere IC50 value, concentration for 50% inhibition of cell proliferation

Compound | IC50 [µmol/L]
COc1ccc(C(=O)Nc2cn(Cc3ccc(F)cc3F)cn2)cc1OC [Example 12, N-[1-(2,4-difluorobenzyl)-1H-imidazol-4-yl]-3,4-dimethoxybenzamide] | 0.09

Tested on: H460 cells
Experiment: Combination with Example 24, inhibitory effect on sphere-forming ability (Test Example 6)
Format: cell-based, human
Conditions: H460 sphere culture, test compound combined with Example 24 (2-1000 nmol/L), 4 days

Compound | sCI, minimum (Ld)/(Lc)
Cc1ccc(F)c(NC(=O)Nc2ccc(-c3cccc4[nH]nc(N)c34)cc2)c1 [Linifanib] | 0.142
O=C(CCCCCCC(=O)Nc1ccccc1)NO [Vorinostat] | 0.573
Cc1ccc(NC(=O)c2ccc(CN3CCN(C)CC3)cc2)cc1Nc1nc(-c2cccnc2)cs1 [Masitinib] | 0.010
Cc1cc2c(C(C)C)c(O)c(O)c(C=O)c2c(O)c1-c1c(C)cc2c(C(C)C)c(O)c(O)c(C=O)c2c1O [Gossypol] | 0.026
COc1ccc2cc(-c3nc(-c4ccc([S+](C)[O-])cc4)[nH]c3-c3ccncc3)ccc2c1 (centres unmarked) [Tie2 kinase inhibitor] | 0.123
CCc1cc(Nc2nccc(-c3c(-c4ccc(OC)c(C(=O)Nc5c(F)cccc5F)c4)nc4ccccn34)n2)c(OC)cc1N1CCC(N2CCN(S(C)(=O)=O)CC2)CC1 [GSK1904529A] | 0.166
Cc1ccc(Nc2nccc(N(C)c3ccc4c(C)n(C)nc4c3)n2)cc1S(N)(=O)=O [Pazopanib] | 0.507
C=C1/C(=C\C=C2/CCC[C@]3(C)[C@@H]([C@H](C)/C=C/[C@H](C)C(C)C)CC[C@@H]23)C[C@@H](O)C[C@@H]1O [Doxercalciferol] | 0.304
CN1CCN(c2nc(C3=C(c4c[nH]c5ccccc45)C(=O)NC3=O)c3ccccc3n2)CC1 [Sotrastaurin] | 0.030
Cc1cccc(Nc2nc(-c3ccncc3)cs2)c1 [STF-62247] | 0.221
COc1ccc(-c2ccc3c(N4CCOC[C@@H]4C)nc(N4CCOC[C@@H]4C)nc3n2)cc1CO [AZD8055] | 0.651
Cn1cncc1[C@@](N)(c1ccc(Cl)cc1)c1ccc2c(c1)c(-c1cccc(Cl)c1)cc(=O)n2C [Tipifarnib] | 0.564
COc1ccc(COc2cc3oc(=O)c4cc(C(C)O)ccc4c3cc2OC)cc1 (centres unmarked) [Palomid 529] | 0.428
Cn1cc(-c2ccc3nnc(C(F)(F)c4ccc5ncccc5c4)n3n2)cn1 [JNJ-38877605] | 0.711
CC(C)(C)Cn1c(N)nc2ccc(-c3[nH]c(C(C)(C)C)nc3-c3ccc(F)cc3)nc21 [LY2228820] | 0.020
Cc1c(NC(=O)OC[C@@H]2COCCN2)cn2ncnc(Nc3ccc4c(cnn4Cc4cccc(F)c4)c3)c12 [BMS-599626] | 0.081
C=CCNC1=C2C[C@@H](C)C[C@H](OC)[C@H](O)[C@@H](C)/C=C(\C)[C@H](OC(N)=O)[C@@H](OC)/C=C\C=C(/C)C(=O)NC(=CC1=O)C2=O [Tanespimycin] | 0.386
Cc1c[nH]c(-c2cnc(NCCNc3ccc(C#N)cn3)nc2-c2ccc(Cl)cc2Cl)n1 [CHIR-99021] | 0.378

Tested on: HCT116 cells
Experiment: as above
Format: cell-based, human
Conditions: HCT116 sphere culture, test compound combined with Example 24 (2-1000 nmol/L), 4 days

Compound | sCI, minimum (Ld)/(Lc)
O=C(Nc1ccccc1-c1cn2c(CN3CCNCC3)csc2n1)c1cnc2ccccc2n1 [SRT1720] | 0.007
CC/C(=C(\c1ccccc1)c1ccc(OCCN(C)C)cc1)c1ccccc1 [Tamoxifen] | 0.046
CN(C)CCOc1ccc(/C(=C(/CCCl)c2ccccc2)c2ccccc2)cc1 [Toremifene] | 0.020
Raloxifen | 0.010
CC[C@H](C)C(=O)O[C@H]1C[C@H](O)C=C2C=C[C@H](C)[C@H](CC[C@@H](O)C[C@@H](O)CC(=O)O)[C@H]21 [Pravastatin] | 0.810
CC[C@H](C)C(=O)O[C@H]1C[C@@H](C)C=C2C=C[C@H](C)[C@H](CC[C@@H]3C[C@@H](O)CC(=O)O3)[C@H]21 [Lovastatin] | 0.150

From patent publication US20200268728A1, “DRUG TARGETING CANCER STEM CELL” (Sumitomo Dainippon Pharma Co., Ltd., priority 2016, published 2020)
